Each structure is given as a SMILES string. Where only a bound is given, the exact number is not on record here.

Results on 25 compounds are retold here after US7781428B2 (Pfizer Inc., priority 2006, dated 2010).

For the assay, the target named is T1, mineralocorticoid receptor (MR) (Homo sapiens, UniProt P08235).
T1 construct: expressed in transfected cells; host or cells: Huh7 (human liver cells)
T1 sequence (P08235 726-964 limits assumed): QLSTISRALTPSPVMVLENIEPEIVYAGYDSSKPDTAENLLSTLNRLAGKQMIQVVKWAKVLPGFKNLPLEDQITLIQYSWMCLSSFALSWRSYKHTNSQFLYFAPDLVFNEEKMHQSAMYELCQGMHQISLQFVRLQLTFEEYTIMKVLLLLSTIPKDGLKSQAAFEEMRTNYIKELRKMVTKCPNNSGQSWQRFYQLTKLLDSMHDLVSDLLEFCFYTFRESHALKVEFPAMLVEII
In words: Cell-based Gal4 response element-controlled luciferase reporter assay (MR antagonism). The conditions noted are these: Huh7 human liver cells transfected with Gal4 DBD-MR LBD fusion and luciferase reporter; block of agonist-induced activation; overnight incubation. The text has this: Method 1: Cell-based Gal4 Response Element-controlled Luciferase Reporter Assay
An in vitro assay can be used to evaluate mineralocorticoid receptor (MR) antagonism by a test compound. […] An agonist of the receptor can bind to and activate the receptor LBD, which activate the expression of the Gal4 response element containing luciferase reporter gene. Antagonists can compete for binding to the receptor LBDs and decrease the transcription activity of the reporter gene. Measurement of luciferase activity allows quantitative determinations of the reporter transcription in the presence of either agonists or agonists and antagonists in combination. β-galactosidase activity, which is unaffected by ligand, is used to normalize the transfection efficiency in the cell population.
Huh7 cells were plated in RPMI1640+10% fetal bovine serum (Invitrogen Corporation, San Diego, Calif.), at 10,000 cells per well in 96-well tissue culture dishes for approximately 24 hours. Cells were then transfected using FuGENE™ 6 Transfection Reagent according to manufacturers' instructions (Roche Molecular Biochemicals, Indianapolis, Ind.). Approximately 20 hours after transfection, media were removed. Cells were washed once with PBS and treated (n=6/group) with agonist for each receptor (all chemicals from Sigma, St. Louis, Mo.), and with compounds. Agonist concentrations represent 70-80% of full activation of each receptor.
Compounds were dissolved in DMSO at 10 mM and diluted to final concentrations in phenol red-free media that contained 10% charcoal- and dextran-stripped serum (Life Technologies, Gathersburg, Md.). Following overnight incubation (18-20 hours) with compounds, the medium was removed and replaced with 100 μL per well of PBS and 100 μL of Steady-Glo™ lysis buffer with luciferase substrate (Promega Corporation, Madison, Wis.). After a 30-minute incubation to completely lyse the cells, 100 μL of the lysate was transferred to a black, Dynatech Microfluor assay plates (Dynex Corporation, Chantilly, Va.) to measure luciferase activity. The plate was sealed with TopSeal self-adhesive film, dark-adapted for 5 minutes, then counted in a TopCount Plate Reader (Packard Instrument Company, Meriden, Conn.) in single photon counting mode. The remaining lysate was used for determination of β-galactosidase activity. In a clear 96-well assay plate, 100 μL of cell lysate was added to 100 μL β-galactosidase assay buffer per well. The assay buffer consisted of 60 mM Na2HPO4, 40 mM NaH2PO4, 10 mM KCl, 1 mM MgSO4, 50 mM β-mercaptoethanol, and 2.5 mg/mL ONPG, the latter two reagents were added just prior to assay (all chemicals from Sigma). The reaction was allowed to proceed until a distinct yellow color developed. Reactions were stopped by the addition of 100 μL per well 1 M Na2CO3 and plates were read at 420 nm in Victor-2 (Perkin Elmer Life Sciences, Boston, Mass.). Values (relative luciferase activity) for each sample were expressed as a ratio of luciferase activity to OD420β-galactosidase activity measured in arbitrary units for each well. […] “b” is the slope, “c” is the IC50 or EC50. “x” is the concentration of the compound and “y” the activity at that concentration.

Turning to `N#Cc1ccc(N2N=C3c4ccc(C(=O)O)cc4CC[C@@H]3[C@@H]2c2ccc(F)cc2)cc1Cl` [Example 3, (3R,3aR)-2-(3-chloro-4-cyanophenyl)-3-(4-fluorophenyl)-3,3a,4,5-tetrahydro-2H-benzo[g]indazole-7-carboxylic acid], the IC50 was 40.7 nM. Under `COC(=O)c1ccc2c(c1)CCC1C2=NN(c2ccc(C#N)c(OCc3ccccc3)c2)C1C1CCCC1` (racemic) [Example 30, methyl 2-(3-(benzyloxy)-4-cyanophenyl)-3-cyclopentyl-3,3a,4,5-tetrahydro-2H-benzo[g]indazole-7-carboxylate] stands 446 nM. Under `Cc1cc(N2N=C3c4ccc(C(=O)O)cc4OCC3C2c2ccc(F)cc2)ccc1C#N` (racemic) [Example 53, (±)-(3SR,3aSR)-2-(4-cyano-3-methylphenyl)-3-(4-fluorophenyl)-2,3,3a,4-tetrahydrochromeno[4,3-c]pyrazole-7-carboxylic acid] stands 307 nM; under `CS(=O)(=O)CCNC(=O)c1ccc2c(c1)CC[C@H]1C2=NN(c2ccc(C#N)c(Cl)c2)[C@H]1c1ccc(F)cc1` [Example 95, (3R,3aR)-2-(3-chloro-4-cyanophenyl)-3-(4-fluorophenyl)-N-(2-(methylsulfonyl)ethyl)-3,3a,4,5-tetrahydro-2H-benzo[g]indazole-7-carboxamide], 2 nM; under `Cc1cc(N2N=C3c4ccc(C(=O)O)cc4OC[C@@H]3[C@@H]2C2CCCC2)ccc1C#N` (single isomer, unassigned) [Example 62], 26 nM. Under `N#Cc1ccc(N2N=C3c4ccc(C(=O)O)cc4OC[C@@H]3[C@@H]2C2CCCC2)cc1Cl` [Example 65, (3S,3aR)-2-(3-chloro-4-cyanophenyl)-3-cyclopentyl-2,3,3a,4-tetrahydrochromeno[4,3-c]pyrazole-7-carboxylic acid] stands 38 nM; under `N#Cc1ccc(N2N=C3c4ccc(C(=O)O)cc4CC[C@H]3[C@H]2c2ccc(F)cc2)cc1` [Example 12, (3S,3aS)-2-(4-cyanophenyl)-3-(4-fluorophenyl)-3,3a,4,5-tetrahydro-2H-benzo[g]indazole-7-carboxylic acid], more than 10000 nM; under `O=C(O)c1ccc2c(c1)CCC1C2=NN(c2ccc3c(c2)CCNC3=O)C1c1ccc(F)cc1` (racemic) [Example 13, 3-(4-fluorophenyl)-2-(1-oxo-1,2,3,4-tetrahydroisoquinolin-6-yl)-3,3a,4,5-tetrahydro-2H-benzo[g]indazole-7-carboxylic acid], 535 nM.

In the case of `Cc1cc(N2N=C3c4ccc(O)cc4CC[C@@H]3[C@@H]2c2ccc(F)cc2)ccc1C#N` [Example 81, 4-((3R,3aR)-3-(4-fluorophenyl)-7-hydroxy-3,3a,4,5-tetrahydrobenzo[g]indazol-2-yl)-2-methylbenzonitrile], the IC50 turned out to be 35 nM. Under `CS(=O)(=O)CCNC(=O)c1ccc2c(c1)CCC1C2=NN(c2ccc(C#N)c(Cl)c2)C1c1ccc(F)cc1` (racemic) [Example 96, 2-(3-chloro-4-cyanophenyl)-3-(4-fluorophenyl)-N-(2-(methylsulfonyl)ethyl)-3,3a,4,5-tetrahydro-2H-benzo[g]indazole-7-carboxamide] stands 12 nM; under `Cc1cc(N2N=C3c4ccc(C(=O)O)cc4CC[C@H]3[C@H]2C2CCCC2)ccc1C#N` (single isomer, unassigned) [Example 23], more than 500 nM; under `N#Cc1ccc(N2N=C3c4ccc(C(=O)O)cc4CCC3C2C2=CCCC2)cc1` (racemic) [Example 50, 2-(4-cyanophenyl)-3-cyclopent-1-en-1-yl-3,3a,4,5-tetrahydro-2H-benzo[g]indazole-7-carboxylic acid], 205 nM. Under `N#Cc1ccc(N2N=C3c4ccc(C(=O)O)cc4OCC3C2C2CCCC2)cc1Cl` (racemic) [Example 64, 2-(3-chloro-4-cyanophenyl)-3-cyclopentyl-2,3,3a,4-tetrahydrochromeno[4,3-c]pyrazole-7-carboxylic acid] stands 65 nM; under `Cc1cc(N2N=C3c4ccc(C(=O)O)cc4OC[C@@H]3[C@@H]2C2=CCCC2)ccc1C#N` (racemic) [Example 77, (±)-(3RS,3aRS)-2-(4-cyano-3-methylphenyl)-3-cyclopentenyl-2,3,3a,4-tetrahydrochromeno[4,3-c]pyrazole-7-carboxylic acid], 13 nM; under `N#Cc1ccc(N2N=C3c4ccc(C(=O)O)cc4CCC3C2c2ccc(F)cc2)cc1C(F)(F)F` (racemic) [Example 9, 2-[4-cyano-3-(trifluoromethyl)phenyl]-3-(4-fluorophenyl)-3,3a,4,5-tetrahydro-2H-benzo[g]indazole-7-carboxylic acid], 170 nM. Under `N#Cc1ccc(N2N=C3c4ccc(C(=O)NCC(=O)NCC(=O)O)cc4CC[C@H]3[C@@H]2c2ccc(F)cc2)cc1Cl` (racemic) [Example 108, (±)-2-(2-((3RS,3aSR)-2-(3-chloro-4-cyanophenyl)-3-(4-fluorophenyl)-3,3a,4,5-tetrahydro-2H-benzo[g]indazole-7-carboxamido)acetamido)acetic acid] stands more than 1000 nM; under `N#Cc1ccc(N2N=C3c4ccc(C(=O)NCCC(N)=O)cc4CC[C@@H]3[C@@H]2c2ccc(F)cc2)cc1Cl` (racemic) [Example 102, (±)-(3RS,3aRS)—N-(3-amino-3-oxopropyl)-2-(3-chloro-4-cyanophenyl)-3-(4-fluorophenyl)-3,3a,4,5-tetrahydro-2H-benzo[g]indazole-7-carboxamide], 35 nM; under `N#Cc1ccc(N2N=C3c4ccc(C(=O)O)cc4CC[C@@H]3[C@@H]2c2ccoc2)cc1Cl` [Example 47, (3R,3aR)-2-(3-chloro-4-cyanophenyl)-3-(3-furyl)-3,3a,4,5-tetrahydro-2H-benzo[g]indazole-7-carboxylic acid], 18 nM.

`N#Cc1ccc(N2N=C3c4ccc(O)cc4CCC3C2c2ccc(F)cc2)cc1Cl` (racemic) [Example 86, 2-chloro-4-(-3-(4-fluorophenyl)-7-hydroxy-3,3a,4,5-tetrahydrobenzo[g]indazol-2-yl)benzonitrile]: the IC50 was 86 nM. As to `N#Cc1ccc(N2N=C3c4ccc(C(=O)NCCO)cc4CC[C@@H]3[C@@H]2C2CCCC2)cc1Cl` [Example 115, (3S,3aR)-2-(3-chloro-4-cyanophenyl)-3-cyclopentyl-N-(2-hydroxyethyl)-3,3a,4,5-tetrahydro-2H-benzo[g]indazole-7-carboxamide], the IC50 was determined as 3 nM. The same measure for `N#Cc1ccc(N2N=C3c4ccc(C(=O)O)cc4CCC3C2c2ccc(F)cc2)cc1` (racemic) [Example 10, 2-(4-cyanophenyl)-3-(4-fluorophenyl)-3,3a,4,5-tetrahydro-2H-benzo[g]indazole-7-carboxylic acid]: 553 nM; for `N#Cc1ccc(N2N=C3c4ccc(C(=O)O)cc4CC[C@@H]3[C@@H]2c2ccc(F)cc2)cc1` [Example 11, (3R,3aR)-2-(4-cyanophenyl)-3-(4-fluorophenyl)-3,3a,4,5-tetrahydro-2H-benzo[g]indazole-7-carboxylic acid]: 205 nM. For the compound `Cc1cc(N2N=C3c4ccc(C(=O)O)cc4OC[C@H]3[C@H]2C2CCCC2)ccc1C#N` (single isomer, unassigned) [Example 63], the IC50 was more than 1000 nM. For `Cc1cc(N2N=C3c4ccc(C(=O)O)cc4CC[C@@H]3[C@@H]2C2CCCC2)ccc1C#N` (single isomer, unassigned) [Example 22], the IC50 was 4 nM.

As for `N#Cc1ccc(N2N=C3c4ccc(O)cc4CC[C@@H]3[C@@H]2c2ccc(F)cc2)cc1C(F)(F)F` [Example 84, 4-((3R,3aR)-3-(4-fluorophenyl)-7-hydroxy-3,3a,4,5-tetrahydrobenzo[g]indazol-2-yl)-2-(trifluoromethyl)benzonitrile], the IC50 came to 113 nM.
